In patent US12503436B2, “Compounds and compositions for treating conditions associated with STING activity” (NOVARTIS PHARMA AG, priority 2021, dated 2025):

biological target: STING (Homo sapiens, UniProt Q86WV6, G230A/H232R/R293Q/R71H); assay: STING reporter assay in THP1-Dual KO-IFNAR2 cells (2′3′cGAMP stimulation, luciferase reporter); assay type: cell-based; details: 15 μM 2′3′cGAMP stimulation, 24 h, read-out: Pharmaron, THP1_IFNAR2 STING 24 h Luci Normalized: GeoMean EC50
Procedure, shortened: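 EC50 from secreted luciferase (QUANTI-Luc Plus luminescence of supernatant) after 24 h at 37 °C, 5% CO2. Cells: THP1-Dual KO-IFNAR2, treated with compound (0.0017-100 μM final) plus lipofected 2′3′cGAMP at 15 μM final.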

Chain of STING (Q86WV6 whole entry R71H/G230A/H232R/R293Q): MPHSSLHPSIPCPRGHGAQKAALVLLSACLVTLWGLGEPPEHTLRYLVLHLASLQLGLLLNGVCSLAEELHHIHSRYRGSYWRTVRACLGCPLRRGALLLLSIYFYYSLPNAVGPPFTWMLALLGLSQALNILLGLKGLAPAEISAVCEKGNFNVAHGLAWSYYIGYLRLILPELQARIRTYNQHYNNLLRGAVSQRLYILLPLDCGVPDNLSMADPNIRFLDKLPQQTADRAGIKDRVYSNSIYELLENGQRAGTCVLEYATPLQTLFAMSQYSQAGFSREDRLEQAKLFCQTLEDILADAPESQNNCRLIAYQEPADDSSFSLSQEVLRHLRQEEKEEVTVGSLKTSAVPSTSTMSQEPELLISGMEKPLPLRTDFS

`O=C(Nc1c[nH]c2ccc(OCCc3ccc(C(F)(F)F)cc3)cc12)C1CC(CO)C1` (centres unmarked) [Compound 312, 3-(hydroxymethyl)-N-(5-(4-(trifluoromethyl)phenethoxy)-1H-indol-3-yl)cyclobutane-1-carboxamide] and `CC(=O)Nc1c[nH]c2ccc(COc3ccc(C(F)(F)F)cc3)cc12` [Compound 115, N-(5-((4-(trifluoromethyl)phenoxy)methyl)-1H-indol-3-yl)acetamide] fall in the same range of EC50: 40 to 200 nM for the first, 40 to 200 nM for the second.

`CC1(C(=O)Nc2c[nH]c3ccc(OC[C@@H]4C[C@@H]5CN(CC(F)(F)F)C[C@@H]5C4)cc23)COC1` [Compound 479, 3-methyl-N-(5-(((3aR,5r,6aS)-2-(2,2,2-trifluoroethyl)octahydrocyclopenta[c]pyrrol-5-yl)methoxy)-1H-indol-3-yl)oxetane-3-carboxamide] and `CO[C@H]1C[C@H](C(=O)Nc2c[nH]c3ccc(OCCc4ccc(C(F)(F)F)cc4)cc23)C1` [Compound 211, trans-3-methoxy-N-(5-(4-(trifluoromethyl)phenethoxy)-1H-indol-3-yl)cyclobutane-1-carboxamide] fall in the same range of EC50: 40 to 200 nM for the first, 40 to 200 nM for the second.

Compared with `N#CC1CCC1C(=O)Nc1c[nH]c2ccc(OCc3ccc(C(F)(F)F)cc3)cc12` (centres unmarked) [Compound 351, 2-cyano-N-(5-((4-(trifluoromethyl)benzyl)oxy)-1H-indol-3-yl)cyclobutane-1-carboxamide], `CN1CC(C(=O)Nc2c[nH]c3ccc(CCOc4ccc(C(F)(F)F)cc4)cc23)C1` [Compound 590, 1-methyl-N-(5-(2-(4-(trifluoromethyl)phenoxy)ethyl)-1H-indol-3-yl)azetidine-3-carboxamide] is higher in EC50: 200 to 1000 nM for the first, 1000 to 5000 nM for the second.

`CC1(C(=O)Nc2c[nH]c3ccc(OCC[C@@H]4C[C@@H]5CN(CC(F)(F)F)C[C@@H]5C4)cc23)CCC1` [Compound 369, 1-methyl-N-(5-(2-((3aR,5r,6aS)-2-(2,2,2-trifluoroethyl)octahydrocyclopenta[c]pyrrol-5-yl)ethoxy)-1H-indol-3-yl)cyclobutane-1-carboxamide] and `CC(=O)Nc1c[nH]c2ccc(CC(O)Cc3ccc(C(F)(F)F)cc3)cc12` (centres unmarked) [Compound 284, N-(5-(2-hydroxy-3-(4-(trifluoromethyl)phenyl)propyl)-1H-indol-3-yl)acetamide] fall in the same range of EC50: 200 to 1000 nM for the first, 200 to 1000 nM for the second.

Compared with `CC(=O)Nc1c[nH]c2ccc(CCOc3ccc4c(c3)N(Cc3ccccc3)C(=O)CS4)cc12` [Compound 386, N-(5-(2-((4-benzyl-3-oxo-3,4-dihydro-2H-benzo[b][1,4]thiazin-6-yl)oxy)ethyl)-1H-indol-3-yl)acetamide], `CC(=O)Nc1c[nH]c2ccc(OCC[C@@H]3[C@H]4CN(CC(F)(F)F)C[C@@H]34)cc12` [Compound 110, N-(5-(2-((1R,5S,6s)-3-(2,2,2-trifluoroethyl)-3-azabicyclo[3.1.0]hexan-6-yl)ethoxy)-1H-indol-3-yl)acetamide] is lower in EC50: 1000 to 5000 nM for the first, 200 to 1000 nM for the second. The second is the more potent here.

First: CC1(C(=O)Nc2c[nH]c3ccc(OC4CC(c5ccc(C(F)(F)F)nc5)C4)cc23)CC1 (stereo in doubt) [Compound 580, 1-methyl-N-(5-(cis-3-(6-(trifluoromethyl)pyridin-3-yl)cyclobutoxy)-1H-indol-3-yl)cyclopropane-1-carboxamide]
Second: CC(=O)Nc1c[nH]c2ccc(OCC[C@H]3CC[C@@H](C(F)(F)F)CC3)cc12 (single isomer, unassigned) [Compound 454, N-(5-(2-(cis-4-(trifluoromethyl)cyclohexyl)ethoxy)-1H-indol-3-yl)acetamide]
The EC50 of the first is lower: 40 to 200 nM for the first, 200 to 1000 nM for the second.

First: CC(=O)Nc1c[nH]c2ccc(CCOc3ccc(C(F)(F)F)c(Br)c3)cc12 [Compound 543, N-(5-(2-(3-bromo-4-(trifluoromethyl)phenoxy)ethyl)-1H-indol-3-yl)acetamide]
Second: O=C(Nc1c[nH]c2ccc(O[C@H]3C[C@@H](c4ccc(C(F)(F)F)cc4)C3)cc12)C1CC(CO)C1 (stereo partly drawn) [Compound 158, 3-(hydroxymethyl)-N-(5-(cis-3-(4-(trifluoromethyl)phenyl)cyclobutoxy)-1H-indol-3-yl)cyclobutane-1-carboxamide]
The EC50 of the first is higher: 200 to 1000 nM for the first, 40 to 200 nM for the second.

First: CC1(C(=O)Nc2c[nH]c3ccc(OCCc4ccc(C(F)(F)F)cc4)cc23)CCOC1 (centres unmarked) [Compound 189, 3-methyl-N-(5-(4-(trifluoromethyl)phenethoxy)-1H-indol-3-yl)tetrahydrofuran-3-carboxamide]
Second: CC(=O)Nc1c[nH]c2cc(Br)c(OCCc3ccc(C(F)(F)F)cc3)cc12 [Compound 173, N-(6-bromo-5-(4-(trifluoromethyl)phenethoxy)-1H-indol-3-yl)acetamide]
The EC50 of the first is lower: 200 to 1000 nM for the first, 5000 to 100000 nM for the second.

Compared with `CC1(C)CC1C(=O)Nc1c[nH]c2ccc(OCCc3ccc(C(F)(F)F)cc3)cc12` (centres unmarked) [Compound 192, 2,2-dimethyl-N-(5-(4-(trifluoromethyl)phenethoxy)-1H-indol-3-yl)cyclopropane-1-carboxamide], `CC(=O)Nc1c[nH]c2ccc(CNc3ccc(C(F)(F)F)nc3)cc12` [Compound 125, N-(5-(((6-(trifluoromethyl)pyridin-3-yl)amino)methyl)-1H-indol-3-yl)acetamide] is higher in EC50: 40 to 200 nM for the first, 200 to 1000 nM for the second. The first is the more potent here.

First: CC(=O)Nc1c[nH]c2ccc(CCOc3ccc(C4CCC4)cc3)cc12 [Compound 230, N-(5-(2-(4-cyclobutylphenoxy)ethyl)-1H-indol-3-yl)acetamide]
Second: CC1(C(=O)Nc2c[nH]c3ccc(OCc4ccc(C(F)(F)F)cc4)cc23)CC1 [Compound 301, 1-methyl-N-(5-((4-(trifluoromethyl)benzyl)oxy)-1H-indol-3-yl)cyclopropane-1-carboxamide]
The EC50 of the first is lower: 40 to 200 nM for the first, 200 to 1000 nM for the second. The first is the more potent here.

`CC1(C)CC(C(=O)Nc2c[nH]c3ccc(OCC[C@@H]4C[C@@H]5CN(CC(F)(F)F)C[C@@H]5C4)cc23)C1` [Compound 346, 3,3-dimethyl-N-(5-(2-((3aR,5r,6aS)-2-(2,2,2-trifluoroethyl)octahydrocyclopenta[c]pyrrol-5-yl)ethoxy)-1H-indol-3-yl)cyclobutane-1-carboxamide] and `O=C(Nc1c[nH]c2ccc(/C=C/Cc3ccc(C(F)(F)F)cc3)cc12)C1CCC1` [Compound 135, (E)-N-(5-(3-(4-(trifluoromethyl)phenyl)prop-1-en-1-yl)-1H-indol-3-yl)cyclobutanecarboxamide] fall in the same range of EC50: 200 to 1000 nM for the first, 200 to 1000 nM for the second.

`CC(C)(C)C(=O)Nc1c[nH]c2ccc(O[C@H]3C[C@@H](c4ccc(C(F)(F)F)cc4)C3)cc12` [Compound 354, N-(5-(cis-3-(4-(trifluoromethyl)phenyl)cyclobutoxy)-1H-indol-3-yl)pivalamide] and `O=C(Nc1c[nH]c2ccc(OCC[C@@H]3C[C@@H]4CN(CC(F)(F)F)C[C@@H]4C3)cc12)C1CC1(F)Cl` (stereo partly drawn) [Compound 577, 2-chloro-2-fluoro-N-(5-(2-((3aR,5r,6aS)-2-(2,2,2-trifluoroethyl)octahydrocyclopenta[c]pyrrol-5-yl)ethoxy)-1H-indol-3-yl)cyclopropane-1-carboxamide] fall in the same range of EC50: 200 to 1000 nM for the first, 200 to 1000 nM for the second.

First: COC1CC(C(=O)Nc2c[nH]c3ccc(O[C@H]4C[C@@H](c5ccc(C(F)(F)F)cc5)C4)cc23)C1 (stereo partly drawn) [Compound 159, 3-methoxy-N-{5-[(1S,3S)-3-[4-(trifluoromethyl)phenyl]cyclobutoxy]-1H-indol-3-yl}cyclobutane-1-carboxamide]
Second: N#CC1CCC1C(=O)Nc1c[nH]c2ccc(O[C@H]3C[C@H](c4ccc(C(F)(F)F)cc4)C3)cc12 (stereo partly drawn) [Compound 467, 2-cyano-N-{5-[(1R,3R)-3-[4-(trifluoromethyl)phenyl]cyclobutoxy]-1H-indol-3-yl}cyclobutane-1-carboxamide]
The EC50 of the first is lower: 40 to 200 nM for the first, 200 to 1000 nM for the second.

Compared with `CC(=O)Nc1c[nH]c2ccc(CCOc3ccc(C4CC(F)(F)C4)cc3)cc12` [Compound 225, N-(5-(2-(4-(3,3-difluorocyclobutyl)phenoxy)ethyl)-1H-indol-3-yl)acetamide], `CC(=O)Nc1c[nH]c2ccc(CCOc3ccc(C(F)(F)F)cc3C#N)cc12` [Compound 440, N-(5-{2-[2-cyano-4-(trifluoromethyl)phenoxy]ethyl}-1H-indol-3-yl)acetamide] is higher in EC50: 40 to 200 nM for the first, 1000 to 5000 nM for the second.

Compared with `CC(C)(O)CC(=O)Nc1c[nH]c2ccc(OCCc3ccc(C(F)(F)F)cc3)cc12` [Compound 519, 3-hydroxy-3-methyl-N-(5-(4-(trifluoromethyl)phenethoxy)-1H-indol-3-yl)butanamide], “3,3-dimethyl-N-(5-(2-((3aR,5r,6aS)-2-(2,2,2-trifluoroethyl)octahydrocyclopenta[c]pyrrol-5-yl)ethoxy)-1H-indol-3-yl)butanamide [Compound 339]” is higher in EC50: 40 to 200 nM for the first, 200 to 1000 nM for the second. The first is the more potent here.

Compared with `O=C(Nc1c[nH]c2ccc(CCOc3ccc(C(F)(F)F)cc3)cc12)C1CC(O)C1` (centres unmarked) [Compound 310, 3-hydroxy-N-(5-(2-(4-(trifluoromethyl)phenoxy)ethyl)-1H-indol-3-yl)cyclobutane-1-carboxamide], `CC(=O)Nc1c[nH]c2c(C)cc(CCOc3ccc(C(F)(F)F)cc3)cc12` [Compound 264, N-(7-methyl-5-(2-(4-(trifluoromethyl)phenoxy)ethyl)-1H-indol-3-yl)acetamide] is higher in EC50: 40 to 200 nM for the first, 1000 to 5000 nM for the second. The first is the more potent here.

First: O=C(Nc1c[nH]c2ccc(OCC[C@@H]3C[C@@H]4CN(CC(F)(F)F)C[C@@H]4C3)cc12)C1CC(F)C1 (stereo partly drawn) [Compound 589, 3-fluoro-N-(5-(2-((3aR,5r,6aS)-2-(2,2,2-trifluoroethyl)octahydrocyclopenta[c]pyrrol-5-yl)ethoxy)-1H-indol-3-yl)cyclobutane-1-carboxamide]
Second: CC(=O)Nc1c[nH]c2ccc(OCC[C@@H]3C[C@@H]4CN(CC(F)(F)F)C[C@@H]4C3)cc12 [Compound 283, N-(5-(2-((3aR,5r,6aS)-2-(2,2,2-trifluoroethyl)octahydrocyclopenta[c]pyrrol-5-yl)ethoxy)-1H-indol-3-yl)acetamide]
The EC50 of the first is lower: 40 to 200 nM for the first, 200 to 1000 nM for the second.

In the case of `CC(C)(C)CC(=O)Nc1c[nH]c2ccc(CCOc3ccc(C(F)(F)F)cc3)cc12` [Compound 591, 3,3-dimethyl-N-(5-(2-(4-(trifluoromethyl)phenoxy)ethyl)-1H-indol-3-yl)butanamide], the EC50 is reported as 200 to 1000 nM.
